Test results published in patent publication US20140187507A1, “TREATMENT OF PARKINSONS DISEASE WITH GLYCOLIPIDS” (Rutgers, The State University of New Jersey, priority 2012, published 2014).
Entries after “also recorded” stand apart in the source; their conditions may differ.

Tests used:
[1] = test system: GM1 deficient mice (HT, KO); test: Motor function in GM1 deficient mice (grip duration, irritant removal, pole climbing); type: in vivo, mouse; details: HT mice 200 DOA
Description: FIG. 4. […] Grip duration (a) and irritant removal (b) were tested in mice at 200 DOA before and after IP injection of L-DOPA.
FIG. 5. […] Mice (200 DOA) were treated IP with saline or compound XVIII (2.5 mg/Kg; 3×/wk) over 5 weeks. (a) grip duration; (b) irritant removal; (c) pole climbing.
HT mice (200 DOA) were treated with saline or analog XVIII (2.5 mg/Kg; 3×/wk; IP) over 5 weeks.

[2] = test system: GM1 deficient mice (HT, KO); test: Rescue of striatal dopamine levels and dopaminergic cells in the GM1 deficient mouse (IHC of SNpc); type: in vivo; details: HT mice 200 days old, 2.5 mg/Kg, 3x/wk, ip, 5 weeks, vs saline
Description: FIG. 3. Reversal of PD neuropathology by GM1 replacement. HT mice (200 days old) were treated with saline or compound XVIII (2.5 mg/Kg; 3×/wk, ip) over 5 weeks.
Heterozygote mice (200 days old, DOA) were treated with saline or analog XVIII (2.5 mg/Kg; 3×/wk, IP) over 5 weeks.

[3] = test system: HT GM1 deficient mice; test: Cognitive function in GM1 deficient mice, T-maze test; type: in vivo, mouse; details: 4 wks dosing, 4 mice/group, saline control
Description: FIG. 6. […] T-maze test: 4 wks dosing with GM1 analog XVIII; 4 mice/group; age as indicated. The rate of alternation is a statistical plot as 0.5 (pure chance) to 1.0 (perfect score). Saline was administered as control.
HT and KO mice in two age groups were evaluated for cognitive function with the T maze test (FIG. 6).

[4] = test system: RET phosphorylation (RET-p); test: RET phosphorylation in GM1 deficient mice, IHC with anti-RET-P and anti-TH; type: in vivo, mouse
Source text: FIG. 8. GM1 replacement restores normal RET phosphorylation (RET-p) from subnormal state in GM1 deficient mice.

[5] = test system: NG-CR72 cells lacking GM1; test: Spontaneous alpha-synuclein aggregation in differentiated cells deficient in GM1; type: cell-based; details: 1 μM; cells differentiated with db-cAMP/KCl
Source text: FIG. 9. Spontaneous formation of alpha-synuclein aggregates in cells deficient in GM1.

[6] = test system: NG108-15 neuroblastoma cells; test: Cell death and neurite outgrowth in MPP-treated differentiated neuroblastoma cells; type: cell-based
Source text: FIG. 12. GM1 replacement therapy reduces cell death and increases neurite outgrowth. NG108-15 neuroblastoma cells were differentiated for 7 days with db-cAMP/KCl, then treated 2 days with MPP and indicated compound for 2 days. […] LIGA-20 is GM1 analog XVIII and compound 6 is analog XXXVII/XXXVIII.

[7] = test system: MPTP-treated mice; test: Rescue of striatal dopamine levels and dopaminergic cells in MPTP-treated mice; type: in vivo, C57B1/6 mice; details: once daily for 3 weeks after MPTP; GM1 30 mg/kg IP; analogs 2, 3, 4, 6, LIGA20 at 0.3 or 30 mg/Kg IP or 30 mg/Kg PO (FIG. 10)
Description: FIG. 10. GM1 analogs increase dopamine and TH+ cell numbers in the SNpc of MPTP treated mice. All agents administered once daily (I.P. or P.O.) for 3 weeks following MPTP treatment. (a) GM1 (1; 30 mg/Kg; IP), analog (3, 4 and 6; 0.3 mg/Kg; IP). (b) LIGA20 (2; 30 mg/Kg), analogs (2, 3 and 6; 30 mg/Kg; IP). (c) analogs (4 and 6; 30 mg/Kg; PO). (d) TH+IHC of the SNpc after treatment with saline or analog (6) (30 mg/Kg; PO) C=saline control. I and II are two separate experiments. Compound 2 is (XXIX/XXX), compound 3 is (XXVII/XXVIII), compound 4 is (XXXI/XXXII), compound 6 is (XXXVIII/XXXVII). LIGA20 is (XVIII).
C57B1/6 mice 7-8 weeks of age were treated with MPTP (b.i.d., 20 mg/kg, s.c.). The mice also receive a daily administration of saline, GM1 (30 mg/kg), or a compound of the invention (0.3 to 3 mg/kg, i.p. and 30 mg/kg os) for three weeks starting 24 h after the last MPTP injection. The brains were removed and analyzed for striatal dopamine levels. The midbrain were fixed for TH immunohistochemistry and dopamine neuron cell counts.

[8] = test system: rat cortical cells; test: Protection of cortical cells from apoptosis (hydrogen peroxide, MTT assay); type: cell-based; details: 50 μM hydrogen peroxide, FIG. 11
Description: To induce apoptosis, rat cortical cells were cultured and treated with 50 μM hydrogen peroxide for three hours prior to being treated with the ganglioside analogue. The cells were also treated with the hydrogen peroxide during treatment with the ganglioside analogue and post-treatment for 48 h. Cell death was assayed using the MTT assay.

[9] = test system: Parkinson's disease patients; details: peripheral subcutaneous administration for 5 years; cited from earlier work
[10] = peripheral subcutaneous administration; cited from earlier work
[11] = 1 μM, differentiated 7 days with db-cAMP/KCl, MPP and compound 2 days

## N[C@@H](Cc1ccc(O)c(O)c1)C(=O)O [L-DOPA, reference compound]
[1]; before and after IP injection of L-DOPA
  motor deficits (grip duration, irritant removal): alleviates motor deficits

## CCCCCCCCCCCCC/C=C/[C@@H](O)[C@H](CO[C@@H]1OC(CO)[C@@H](O[C@@H]2OC(CO)[C@H](O[C@@H]3OC(CO)[C@H](O)[C@H](O[C@@H]4OC(CO)[C@H](O)[C@H](O)C4O)C3NC(C)=O)[C@H](O[C@]3(C(=O)O)C[C@@H](O)[C@@H](NC(C)=O)C([C@H](O)[C@H](O)CO)O3)C2O)[C@H](O)C1O)NC(=O)C(Cl)Cl (some centres unmarked) [compound XVIII]
[2]
  TH+ dopaminergic neuron number in SNpc: increase in TH+ dopaminergic cells; also recorded: neuron number increase
  striatal dopamine (DA) levels: elevation of striatal dopamine; also recorded: DA levels increase
  αSyn aggregates in TH+ cells of SNpc: reduction of αSynuclein; also recorded: αSyn aggregates decrease
[1]; 2.5 mg/Kg, 3x/wk, IP, 5 weeks, vs saline, 2.5 mg/kg
  motor function (grip duration, irritant removal, pole climbing tests): significantly improved motor function; also recorded: improves motor function
[3]
  cognitive function, T-maze rate of alternation: improves cognitive function
[4]; HT mice (low GM1)
  RET phosphorylation (RET-p): significantly elevated
[4]; KO mice (no GM1)
  RET phosphorylation (RET-p): significantly elevated
[5]
  αSyn-aggregation (FITC-anti-αSyn antibody staining): suppressed
[6]; [11]
  % of cells with neurites: similarly improved
  relative cell number: significantly improved

## GM1
[7]
  striatal dopamine levels: increased striatal dopamine levels
[8]
  protection of cells from apoptosis: provided protection of the cells from apoptosis
[6]; GM1 at 100 μM
  % of cells with neurites: similarly improved
[6]; GM1 at 100 μM, compared with LIGA-20 and compound 6 at 1 μM
  relative cell number: equivalent
[9]
  progression of motor function loss: slowed the progression of motor function loss
[10]
  share of the administered dose able to penetrate the brain: less than 1%
